# Laboratory results published in article PMC12020424, “Identification and Validation of Cyclic Peptides with Mucin-Selective, Location-Specific Binding in the Gastrointestinal Tract” (ACS Nano, 2025).
# Bridge positions count the residues as written; N and C are the ends. Ends that are not written are not given here.
# Target: MUC2 (Homo sapiens, UniProt Q02817)
# Experiment: Phage display (CX7C library) against MUC2, Sanger sequencing
# Assay type: binding
# Conditions: for % Prevalence: MUC2 phage screening, CX7C library, third round of panning, 16 sequenced candidates
# Method: For each mucin of interest, 5 μg of mucin protein was diluted in 150 μL of Tris-buffered saline (TBS) and added to 2 wells of a microtiter plate. The plate was left overnight in a humidified, sealed container with agitation at 50 rpm. After the overnight mucin coating, the solution was poured out, and 300 μL of blocking buffer was added to the wells for 1 h. After the 1 h waiting period, the blocking buffer was poured out, and the wells were washed three times with 300 μL of Tris-buffered saline with TBST (TBS + 0.1% (v/v) Tween-20) to remove nonspecific binding on the mucin layer coating. Next, 5 μL of the C7C library diluted with 95 μL of TBST was added to each blocked well and placed on shaker for 45 min, before pouring out the nonbinding phage and washing the plate ten times with TBST. A 0.2 M glycine-HCl elution buffer (pH 2.2, 100 μL) was added to each well and placed on a shaker for 20 min to release the mucin-layer binding peptides on the plate as unamplified eluate, with the pH neutralized by 30 μL of neutralization buffer (1 M Tris-HCl, pH 9).
# E. coli liquid cultures were prepared by adding E. coli cells to 20 mL of LB media and placing them in shaking conditions at 37 °C and 250 rpm for 2 h and 45 min. The unamplified eluate (1 μL of which was saved for titering) was added to the E. coli cultures under the same conditions for 4 h and 45 min for amplification. After amplification, the cultures were centrifuged for 10 min at 12,000 g RCF at 4 °C, and the supernatant was collected and spun again under the same conditions for 5 min. The top 16 mL of supernatant was collected and mixed with 4 mL of PEG/NaCl (20% (w/v) PEG-8000/2.5 M NaCl in water) to promote precipitation of the mucin-binding peptide-containing phage and left overnight.
# Titering was performed to measure the amount of phages present in the solution. From the obtained unamplified eluate, 1 μL of unamplified eluate was added to 999 μL of LB solution to obtain a 10³ dilution. […]
sequence,measurement,setting,value
"CAKHRIMLC (disulfide 1-9 (inferred)) [Peptide M2.1, CX7C cyclic peptide hit for MUC2; AF647 conjugated at N-terminus in ex vivo tests]",% Prevalence,,25%
same,repeated peptide hits (number of phage candidates),"phage display against MUC2, Sanger sequencing",4 of 16
"CTDKASSSC (disulfide 1-9 (inferred)) [Peptide M2.2, CX7C cyclic peptide hit for MUC2]",% Prevalence,,6.25%
